The source of these data is PMC10032564, “Ligand-Capped Cobalt(II) Multiplies the Value of the Double-Histidine Motif for PCS NMR Studies” (Journal of the American Chemical Society, 2023).

In general, pKd refers to −log10 of the Kd, conventionally taken in molar units.

Test [1] deals with T1, GB1 (K28H/Q32H, diHis GB1) (Streptococcus sp. 'group G', UniProt P06654, K254H/Q258H).
T1 construct: gene spg; GB1
The test can be described thus: NMR titration; PCS of the IDA-Co2+ complex. The class given is binding.

For test [2], the target named is T1, GB1 (K28H/Q32H, diHis GB1). The test can be described thus: NMR (Kd measurement; PCS of the NTA-Co2+ complex). The test is classed as binding.

pKd: −log10 of the molar value. Bounds are passed on as bounds.

T1 sequence (P06654 228-282 K254H/Q258H limits assumed): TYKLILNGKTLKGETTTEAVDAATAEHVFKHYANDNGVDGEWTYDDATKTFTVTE

Turning to `O=C(O)CNCC(=O)O` [IDA-Co2+, iminodiacetic acid], in test [1], the pKd is more than 3.67. Regarding `O=C(O)CN(CC(=O)O)CC(=O)O` [NTA-Co2+, nitrilotriacetic acid], the pKd in test [2] was 3.89.
